{"source": "patent US9700504B2", "about": "“Composition and method for an intradermal hair growth solution” (priority 2012, dated 2017)", "origin": "cited, not measured here", "system": "human hair follicles", "conditions": "ex vivo human hair follicles and cultured dermal papilla cells"}
{"substance": "L-alanyl-L-histidyl-L-lysine-Cu^2+ [AHK-Cu]", "values": [{"measurement": "effect on human hair growth", "result": "promotes the growth of human hair follicles"}]}
